Assay results as given in ChEMBL document CHEMBL4184188, “Characterization of tyrosinase inhibitory constituents from the aerial parts of Humulus japonicus using LC-MS/MS coupled online assay” (Bioorg Med Chem, 2018).
Calls of active or inactive are those of the source. The calls are words filed in the database; no cut-off is given here.

Key:
[1] = molecular target: T1, Tyrosinase (Agaricus bisporus) (UniProt O42713); assay: Inhibition of mushroom tyrosinase using tyrosine as substrate pretreated for 5 mins followed by substrate addition measured after 20 mins by ELISA
T1 sequence (whole entry): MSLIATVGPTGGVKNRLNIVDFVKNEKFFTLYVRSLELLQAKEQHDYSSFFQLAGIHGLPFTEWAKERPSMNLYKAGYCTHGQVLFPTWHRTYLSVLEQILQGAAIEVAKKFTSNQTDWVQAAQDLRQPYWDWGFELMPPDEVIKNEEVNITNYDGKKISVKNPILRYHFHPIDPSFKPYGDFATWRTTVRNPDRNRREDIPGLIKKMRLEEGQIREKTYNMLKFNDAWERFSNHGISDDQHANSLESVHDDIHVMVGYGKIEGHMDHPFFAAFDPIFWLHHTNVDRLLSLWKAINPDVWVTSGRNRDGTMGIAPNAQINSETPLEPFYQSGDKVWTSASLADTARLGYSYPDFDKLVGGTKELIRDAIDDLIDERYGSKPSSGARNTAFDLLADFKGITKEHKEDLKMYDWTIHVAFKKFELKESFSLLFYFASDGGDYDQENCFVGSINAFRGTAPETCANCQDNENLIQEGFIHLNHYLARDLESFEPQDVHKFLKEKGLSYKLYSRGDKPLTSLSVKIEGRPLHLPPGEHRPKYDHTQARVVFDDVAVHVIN

[2] = molecular target: T1, Tyrosinase (Agaricus bisporus); assay: Inhibition of mushroom tyrosinase at 100 uM using tyrosine as substrate pretreated for 5 mins followed by substrate addition measured after 20 mins by ELISA relative to control

Compound | inhibition [1] | inhibition [2] [%]
O=C(O)c1ccc(O)cc1 | Active | –
C=CCc1ccc(O[C@@H]2O[C@H](CO)[C@@H](O)[C@H](O)[C@H]2O)c(OC)c1 | inactive | –
O=Cc1ccccc1 | Active | –
COc1cc(C(C)=O)ccc1O | inactive | –
COc1ccc(C=O)cc1O | inactive | –
O=C(/C=C\c1ccc(O)cc1)NCCc1ccc(O)cc1 | Active | –
CCOC(C)=O | Active | –
CC(=O)/C=C/[C@@]1(O)C(C)=CC(=O)CC1(C)C | inactive | –
COc1cc(/C=C/C(=O)NCCc2ccc(O)cc2)ccc1O | inactive | –
O=Cc1c[nH]c2ccccc12 | Active | > 30
O=C(O)c1c[nH]c2ccccc12 | Active | –
COc1cc(C(=O)O)ccc1O | inactive | –
COc1cc(/C=C\C(=O)NCCc2ccc(O)cc2)ccc1O | inactive | –
NC(=O)c1cccnc1 | Active | –
COc1cc2ccc(=O)oc2cc1O | Active | > 30
O=c1cc(-c2ccc(O)cc2)oc2cc(O)cc(O)c12 | Active | –
CC1(C)C[C@@H](O)C[C@@]2(C)OC(=O)C=C12 | inactive | –

Compound | inhibition [1] | inhibition [2] [%]
O=c1cc(-c2ccc(O)c(O)c2)oc2cc(O)cc(O)c12 | Active | –
O=C(O)c1ccccc1 | Active | –
C/C(=C\COC(=O)c1ccccc1)CO[C@@H]1O[C@H](CO)[C@@H](O)[C@H](O)[C@H]1O | Active | –
CC(=O)/C=C/[C@H]1C(C)=C[C@H](O)CC1(C)C | inactive | –
COC(=O)c1c[nH]c2ccccc12 | Active | –
COc1ccc(C(C)=O)cc1OC | inactive | –
CC1(C)C[C@@H](O)C[C@]2(C)OC(=O)C=C12 | inactive | –
O=c1cc[nH]c(=O)[nH]1 | Active | –
CC1=CC(=O)CC(C)(C)[C@@]1(O)CC[C@H](C)O | inactive | –
CC(=O)C=C=C1C(C)(C)C[C@H](O)C[C@@]1(C)O | inactive | –
O=c1cc(-c2ccc(O)cc2)oc2c([C@@H]3O[C@H](CO)[C@@H](O)[C@H](O)[C@H]3O)c(O)cc(O)c12 | inactive | –
COc1cc2oc(=O)ccc2cc1O | Active | > 30
O=C(/C=C/c1ccc(O)cc1)NCCc1ccc(O)cc1 | Active | –
CC1=CC(=O)CC(C)(C)/C1=C/C[C@@H](C)O | inactive | –
NC(=O)/C=C/c1ccc(O)cc1 | Active | –
CC(=O)/C=C/[C@@]12O[C@]1(C)C[C@@H](O)CC2(C)C | inactive | –
C/C(=C\COC(=O)c1ccccc1O)CO[C@@H]1O[C@H](CO)[C@@H](O)[C@H](O)[C@H]1O | Active | > 30
